Reference: ChEMBL document CHEMBL1201862, “PubChem BioAssay data set” (2004)
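Five concentrations, 48 hours, 96-well plates. GI50: concentration for 50% inhibition of growth.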 Calls of active or inactive are those of the source. Cut-off read from the data, not from the text of the source: active = GI50 up to about 1.1 µM and inactive = higher.

Experiments:
Assay in all cases: inhibition of tumour cell growth, NCI panel, 48 h
A498 = system: A498
A549 = system: A549
ACHN = system: ACHN
BT-549 = system: BT-549
CAKI-1 = system: CAKI-1
CCRF-CEM = system: CCRF-CEM
COLO 205 = system: COLO 205
DLD-1 = system: DLD-1
DMS-114 = system: DMS-114
DMS-273 = system: DMS-273
DU-145 = system: DU-145
EKVX = system: EKVX
HCC 2998 = system: HCC 2998
HCT-116 = system: HCT-116
HCT-15 = system: HCT-15
HL-60 = system: HL-60
HOP-62 = system: HOP-62
HOP-92 = system: HOP-92
HT-29 = system: HT-29
Hs-578T = system: Hs-578T
IGROV-1 = system: IGROV-1
K562 = system: K562
KM12 = system: KM12
LOX IMVI = system: LOX IMVI
LXFL 529 = system: LXFL 529
M14 = system: M14
M19-MEL = system: M19-MEL
MCF7 = system: MCF7
MDA-MB-231 = system: MDA-MB-231
MDA-MB-435 = system: MDA-MB-435
MDA-N = system: MDA-N
MOLT-4 = system: MOLT-4
Malme-3M = system: Malme-3M
NCI-H226 = system: NCI-H226
NCI-H23 = system: NCI-H23
NCI-H460 = system: NCI-H460
NCI-H522 = system: NCI-H522
NCI/ADR-RES = system: NCI/ADR-RES
OVCAR-3 = system: OVCAR-3
OVCAR-4 = system: OVCAR-4
OVCAR-5 = system: OVCAR-5
OVCAR-8 = system: OVCAR-8
PC-3 = system: PC-3
RPMI-8226 = system: RPMI-8226
RXF 393 = system: RXF 393
SF-268 = system: SF-268
SF-295 = system: SF-295
SF-539 = system: SF-539
SK-MEL-28 = system: SK-MEL-28
SK-MEL-2 = system: SK-MEL-2
SK-OV-3 = system: SK-OV-3
SN12C = system: SN12C
SNB-19 = system: SNB-19
SNB-75 = system: SNB-75
SNB-78 = system: SNB-78
SR = system: SR
SW-620 = system: SW-620
T47D = system: T47D
TK-10 = system: TK-10
U-251 = system: U-251
UACC-257 = system: UACC-257
UACC-62 = system: UACC-62
UO-31 = system: UO-31
XF498 = system: XF498
786-0 = system: 786-0
SK-MEL-5 = system: SK-MEL-5
KM-20L2 = system: KM-20L2

Measured: GI50

CS(=O)(=O)C(C#N)c1nc2ccccc2nc1Cl (configuration not stated)
inactive: A498 > 28.1 µM | A549 > 100 µM | ACHN > 100 µM | BT-549 > 100 µM | CAKI-1 > 66.5 µM | CCRF-CEM > 94 µM | COLO 205 > 100 µM | DLD-1 4.18 µM | DMS-114 > 100 µM | DMS-273 > 100 µM | DU-145 > 100 µM | EKVX > 100 µM | HCC 2998 > 32.2 µM | HCT-116 > 100 µM | HL-60 > 100 µM | HOP-62 > 100 µM | HOP-92 > 100 µM | HT-29 > 100 µM | Hs-578T 70.6 µM | IGROV-1 > 66.5 µM | K562 > 100 µM | KM12 > 34.4 µM | LOX IMVI > 100 µM | LXFL 529 > 100 µM | M14 > 100 µM | M19-MEL 5.68 µM | MCF7 > 100 µM | MDA-MB-231 > 100 µM | MDA-MB-435 > 100 µM | MDA-N > 100 µM | MOLT-4 > 100 µM | Malme-3M > 100 µM | NCI-H226 > 100 µM | NCI-H23 > 100 µM | NCI-H460 > 30.5 µM | NCI-H522 > 53.7 µM | NCI/ADR-RES > 36.5 µM | OVCAR-3 > 72.1 µM | OVCAR-4 > 73.5 µM | OVCAR-5 > 39.9 µM | OVCAR-8 > 19.5 µM | PC-3 > 100 µM | RPMI-8226 > 100 µM | RXF 393 > 100 µM | SF-268 > 74 µM | SF-295 > 100 µM | SF-539 > 28.5 µM | SK-MEL-28 > 100 µM | SK-MEL-2 > 22.4 µM | SK-OV-3 > 100 µM | SN12C > 100 µM | SNB-19 > 100 µM | SNB-75 > 100 µM | SNB-78 > 100 µM | SR > 100 µM | SW-620 > 100 µM | T47D > 100 µM | TK-10 > 32.6 µM | U-251 > 100 µM | UACC-257 > 73.3 µM | UACC-62 > 100 µM | UO-31 > 100 µM | XF498 > 100 µM
> 35.2 µM: HCT-15

C[Si]12OCCCN(CCO1)CCO2
inactive: 786-0 > 100 µM | A498 > 100 µM | A549 > 100 µM | ACHN > 100 µM | CAKI-1 > 100 µM | CCRF-CEM > 100 µM | COLO 205 > 100 µM | DLD-1 > 100 µM | DMS-114 > 100 µM | DMS-273 > 100 µM | EKVX > 100 µM | HCC 2998 > 100 µM | HCT-116 > 100 µM | HOP-92 > 100 µM | HT-29 > 100 µM | IGROV-1 > 100 µM | K562 > 100 µM | KM12 > 100 µM | LXFL 529 > 100 µM | M19-MEL > 100 µM | MOLT-4 > 100 µM | Malme-3M > 100 µM | NCI-H23 > 100 µM | NCI-H460 > 100 µM | NCI-H522 > 100 µM | OVCAR-3 > 100 µM | OVCAR-5 > 100 µM | OVCAR-8 > 100 µM | RPMI-8226 > 100 µM | RXF 393 > 100 µM | SF-268 > 100 µM | SF-295 > 100 µM | SF-539 > 100 µM | SK-MEL-28 > 100 µM | SK-MEL-2 > 100 µM | SK-MEL-5 > 100 µM | SK-OV-3 > 100 µM | SN12C > 100 µM | SNB-19 > 100 µM | SNB-75 > 100 µM | SNB-78 > 100 µM | SR > 100 µM | SW-620 > 100 µM | TK-10 > 100 µM | U-251 > 100 µM | UACC-257 > 100 µM | UACC-62 > 100 µM | UO-31 > 100 µM

O=[N+]([O-])C1C2C=CC(C2)[C@H]1c1ccco1 (some centres not stated)
active: HOP-92 0.259 µM | NCI-H23 0.384 µM
> 100 µM: HCT-15
inactive: 786-0 > 100 µM | A498 > 100 µM | A549 > 100 µM | ACHN > 100 µM | CAKI-1 > 100 µM | CCRF-CEM > 100 µM | COLO 205 > 100 µM | DLD-1 > 100 µM | DMS-114 > 100 µM | DMS-273 > 100 µM | EKVX > 100 µM | HCC 2998 > 100 µM | HCT-116 > 100 µM | HL-60 > 100 µM | HOP-62 > 100 µM | HT-29 2.19 µM | IGROV-1 > 100 µM | K562 > 100 µM | KM-20L2 > 100 µM | KM12 > 100 µM | LOX IMVI > 100 µM | LXFL 529 > 100 µM | M14 > 100 µM | M19-MEL > 100 µM | MOLT-4 > 100 µM | Malme-3M > 100 µM | NCI-H226 > 100 µM | NCI-H460 > 100 µM | NCI-H522 > 100 µM | OVCAR-3 > 100 µM | OVCAR-4 > 100 µM | OVCAR-5 > 100 µM | OVCAR-8 > 100 µM | RXF 393 > 100 µM | SF-268 > 100 µM | SF-295 > 100 µM | SF-539 > 100 µM | SK-MEL-2 > 100 µM | SK-MEL-5 > 100 µM | SK-OV-3 > 100 µM | SN12C > 100 µM | SNB-19 > 100 µM | SNB-75 > 100 µM | SNB-78 > 100 µM | SR > 100 µM | SW-620 > 100 µM | TK-10 > 100 µM | U-251 > 100 µM | UACC-257 > 100 µM | UACC-62 > 100 µM | UO-31 > 100 µM | XF498 > 100 µM
